Measured values as given in patent US8846710B2, “Method of preferentially inducing the biosynthesis of interferon” (3M Innovative Properties Company, priority 2005, dated 2014).

Tests used:
[1] = system: tumor necrosis factor (α) (TNF-α); experiment: Cytokine induction in human cells: TNF-α secreted by PBMC into culture media (ORIGEN M-Series immunoassay); type: cell-based; set-up: key to Maximal Response (pg/mL) TNF / Maximal Response TNF: If any negative values result from background subtraction, the reading is reported as “*”, and is noted as not reliably detectable; settings: for minimal effective concentration / Minimum Effective Concentration TNF / Maximal Response TNF: human PBMC; for minimal effective concentration: lowest tested concentration inducing TNF-α over usually 40 pg/mL, median where more than one experiment, read-out: Minimum Effective Concentration (μM) TNF; for Maximal Response (pg/mL) TNF: maximal response in dose response curve; for Maximal Response (pg/mL) TNF / Maximal Response TNF: median; for Minimum Effective Concentration TNF: median where tested in more than one experiment
Summary of the method: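 Human donor PBMC (final 2×10^6 cells/mL) were incubated 18 to 24 hours at 37° C with compound, usually 30-0.014 μM in 3-fold steps, ≤1% DMSO. Supernatant TNF-α was measured by ORIGEN immunoassay, background-subtracted and reference-adjusted; minimum effective concentration was the lowest concentration exceeding a fixed cytokine threshold.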

interferon (α) (IFN-α) = experiment: Cytokine induction in human cells: IFN-α secreted by PBMC into culture media (ELISA); type: cell-based; settings: for minimal effective concentration / Maximal Response IFN / Minimum Effective Concentration IFN: human PBMC; for minimal effective concentration: lowest tested concentration inducing IFN-α over usually 20 pg/mL, median where more than one experiment, read-out: Minimum Effective Concentration (μM) IFN; for Maximal Response (pg/mL) IFN: maximal response in dose response curve, median; for Maximal Response IFN / Minimum Effective Concentration IFN: median where tested in more than one experiment
Summary of the method: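 Human donor PBMC, 2×10^6 cells/mL final in RPMI complete, treated 18–24 h at 37 °C, 5% CO2 with 3-fold dilutions (usually 30-0.014 μM), DMSO ≤1%. Supernatant IFN-α by multi-subtype sandwich ELISA, background-subtracted and reference-adjusted; minimum effective concentration = lowest concentration exceeding usually 20 pg/mL.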

[2] = Table 10, * = below experimental background level
[3] = Table 11, * = TNF below experimental background of 40 pg/mL
[4] = Table 7, background-subtracted, reference-adjusted
[5] = Table 8, background-subtracted, reference-adjusted

CCOCc1nc2c(N)nc3cc(-c4cccc(O)c4)ccc3c2n1CC(C)(C)O [Analog 43]
minimal effective concentration ([1]; Table 10): 0.04 µM | Maximal Response (pg/mL) TNF [1, 2]: 3955 pg/mL | minimal effective concentration (interferon (α) (IFN-α); Table 10): 0.04 µM | Maximal Response (pg/mL) IFN (interferon (α) (IFN-α); [2]): 740 pg/mL

CCCNC(=O)NCCCCn1c(CCC)nc2c(N)nc3cc(-c4cccnc4)ccc3c21 [Analog 30]
minimal effective concentration ([1]; Table 10): 0.37 µM | Maximal Response (pg/mL) TNF [1, 2]: 5284 pg/mL | minimal effective concentration (interferon (α) (IFN-α); Table 10): 0.37 µM | Maximal Response (pg/mL) IFN (interferon (α) (IFN-α); [2]): 531 pg/mL

Nc1nc2cc(-c3cccnc3)ccc2c2c1nc(CO)n2CCCCNC(=O)C1CCCC1 [Example 198]
Maximal Response (pg/mL) TNF [1, 2]: 410 pg/mL | Maximal Response (pg/mL) IFN (interferon (α) (IFN-α); [2]): 2745 pg/mL

COCCc1nc2c(N)nc3ccccc3c2n1CCCCNC(=O)c1cnc2ccccc2c1 [Analog 115]
Minimum Effective Concentration TNF ([1]; Table 11): 0.04 µM | Maximal Response TNF [1, 3]: 9340 pg/mL | Maximal Response IFN (interferon (α) (IFN-α); Table 11): 7545 pg/mL | Minimum Effective Concentration IFN (interferon (α) (IFN-α); Table 11): 0.014 µM

Nc1nc2ccccc2c2c1nc(CCO)n2CCCCNC(=O)N1CCOCC1 [Example 115]
Minimum Effective Concentration TNF ([1]; Table 11): >30 µM | Maximal Response TNF [1, 3]: * | Maximal Response IFN (interferon (α) (IFN-α); Table 11): 8361 pg/mL | Minimum Effective Concentration IFN (interferon (α) (IFN-α); Table 11): 1.11 µM

CCOCc1nc2c(N)nc3ccccc3c2n1CCNS(C)(=O)=O [Analog 71]
Minimum Effective Concentration TNF ([1]; Table 11): 3.33 µM | Maximal Response TNF [1, 3]: 4918 pg/mL | Maximal Response IFN (interferon (α) (IFN-α); Table 11): 1465 pg/mL | Minimum Effective Concentration IFN (interferon (α) (IFN-α); Table 11): 0.12 µM

CCCCNC(=O)NCCCn1c(CCO)nc2c(N)nc3ccccc3c21 [Example 126]
Minimum Effective Concentration TNF ([1]; Table 11): >30 µM | Maximal Response TNF [1, 3]: * | Maximal Response IFN (interferon (α) (IFN-α); Table 11): 8361 pg/mL | Minimum Effective Concentration IFN (interferon (α) (IFN-α); Table 11): 1.11 µM

NCCCCn1c(CCO)nc2c(N)nc3ccccc3c21 [Example 114]
Minimum Effective Concentration TNF ([1]; Table 11): >30 µM | Maximal Response TNF [1, 3]: * | Maximal Response IFN (interferon (α) (IFN-α); Table 11): 23 pg/mL | Minimum Effective Concentration IFN (interferon (α) (IFN-α); Table 11): 30 µM

CCNC(=O)NCCn1c(CCO)nc2c(N)nc3ccccc3c21 [Example 137]
Minimum Effective Concentration TNF ([1]; Table 11): 30 µM | Maximal Response TNF [1, 3]: 73 pg/mL | Maximal Response IFN (interferon (α) (IFN-α); Table 11): 801 pg/mL | Minimum Effective Concentration IFN (interferon (α) (IFN-α); Table 11): 30 µM

CCOCc1nc2c(N)nc3ccccc3c2n1CC(C)(C)N [Analog 111]
Minimum Effective Concentration TNF ([1]; Table 11): 0.37 µM | Maximal Response TNF [1, 3]: 11475 pg/mL | Maximal Response IFN (interferon (α) (IFN-α); Table 11): 656 pg/mL | Minimum Effective Concentration IFN (interferon (α) (IFN-α); Table 11): 0.12 µM

CC(C)NC(=O)NCCCn1c(CCO)nc2c(N)nc3ccccc3c21 [Example 99]
Minimum Effective Concentration TNF ([1]; Table 11): >30 µM | Maximal Response TNF [1, 3]: * | Maximal Response IFN (interferon (α) (IFN-α); Table 11): 21829 pg/mL | Minimum Effective Concentration IFN (interferon (α) (IFN-α); Table 11): 0.37 µM

COCCc1nc2c(N)nc3cc(-c4cncc(CO)c4)ccc3c2n1CC(C)C [Analog 27]
minimal effective concentration ([1]; Table 10): 0.04 µM | Maximal Response (pg/mL) TNF [1, 2]: 9563 pg/mL | minimal effective concentration (interferon (α) (IFN-α); Table 10): 0.014 µM | Maximal Response (pg/mL) IFN (interferon (α) (IFN-α); [2]): 1332 pg/mL

CCc1nc2c(N)nc3ccccc3c2n1CCNS(C)(=O)=O [Analog 69]
Minimum Effective Concentration TNF ([1]; Table 11): 10 µM | Maximal Response TNF [1, 3]: 820 pg/mL | Maximal Response IFN (interferon (α) (IFN-α); Table 11): 1610 pg/mL | Minimum Effective Concentration IFN (interferon (α) (IFN-α); Table 11): 0.12 µM

CCCc1nc2c(N)nc3cc(-c4cccnc4)ccc3c2n1CCCCNC(=O)C1CCCC1 [Analog 36]
minimal effective concentration ([1]; Table 10): 0.37 µM | Maximal Response (pg/mL) TNF [1, 2]: 2222 pg/mL | minimal effective concentration (interferon (α) (IFN-α); Table 10): 0.12 µM | Maximal Response (pg/mL) IFN (interferon (α) (IFN-α); [2]): 521 pg/mL

CCCC(=O)NCCCCn1c(COCC)nc2c(N)nc3cc(-c4cccnc4)ccc3c21 [Analog 31]
minimal effective concentration ([1]; Table 10): 1.11 µM | Maximal Response (pg/mL) TNF [1, 2]: 991 pg/mL | minimal effective concentration (interferon (α) (IFN-α); Table 10): 0.12 µM | Maximal Response (pg/mL) IFN (interferon (α) (IFN-α); [2]): 965 pg/mL

Cc1cccc(-c2ccc3c(c2)nc(N)c2nc(CO)n(CC(C)(C)O)c23)c1 [Example 164]
minimal effective concentration ([1]; Table 10): >30 µM | Maximal Response (pg/mL) TNF [1, 2]: * | minimal effective concentration (interferon (α) (IFN-α); Table 10): 30 µM | Maximal Response (pg/mL) IFN (interferon (α) (IFN-α); [2]): 87 pg/mL

CCOCc1nc2c(N)nc3ccccc3c2n1CC(C)(C)NC(=O)NC(C)C [Analog 108]
Minimum Effective Concentration TNF ([1]; Table 11): 1.11 µM | Maximal Response TNF [1, 3]: 10587 pg/mL | Maximal Response IFN (interferon (α) (IFN-α); Table 11): 966 pg/mL | Minimum Effective Concentration IFN (interferon (α) (IFN-α); Table 11): 0.37 µM

CC(C)(CNC(=O)Nc1ccccc1)Cn1c(CCO)nc2c(N)nc3ccccc3c21 [Example 130]
Minimum Effective Concentration TNF ([1]; Table 11): 3.33 µM | Maximal Response TNF [1, 3]: 2001 pg/mL | Maximal Response IFN (interferon (α) (IFN-α); Table 11): 8361 pg/mL | Minimum Effective Concentration IFN (interferon (α) (IFN-α); Table 11): 0.014 µM

Cc1nc2c(N)nc3ccccc3c2n1CCNS(C)(=O)=O [Analog 68]
Minimum Effective Concentration TNF ([1]; Table 11): 10 µM | Maximal Response TNF [1, 3]: 820 pg/mL | Maximal Response IFN (interferon (α) (IFN-α); Table 11): 1610 pg/mL | Minimum Effective Concentration IFN (interferon (α) (IFN-α); Table 11): 0.12 µM

COCCc1nc2c(N)nc3ccccc3c2n1CCCCCS(C)(=O)=O [Analog 76]
Minimum Effective Concentration TNF ([1]; Table 11): 1.11 µM | Maximal Response TNF [1, 3]: 6169 pg/mL | Maximal Response IFN (interferon (α) (IFN-α); Table 11): 2695 pg/mL | Minimum Effective Concentration IFN (interferon (α) (IFN-α); Table 11): 0.014 µM

CCOCc1nc2c(N)nc3ccccc3c2n1CCCNS(C)(=O)=O [Analog 61]
Minimum Effective Concentration TNF ([1]; Table 11): 10 µM | Maximal Response TNF [1, 3]: 463 pg/mL | Maximal Response IFN (interferon (α) (IFN-α); Table 11): 1338 pg/mL | Minimum Effective Concentration IFN (interferon (α) (IFN-α); Table 11): 0.37 µM

CCCCNC(=O)NCCCn1c(COCC)nc2c(N)nc3ccccc3c21 [Analog 97]
Minimum Effective Concentration TNF ([1]; Table 11): 3.33 µM | Maximal Response TNF [1, 3]: 963 pg/mL | Maximal Response IFN (interferon (α) (IFN-α); Table 11): 827 pg/mL | Minimum Effective Concentration IFN (interferon (α) (IFN-α); Table 11): 0.37 µM

CCCc1nc2c(N)nc3ccccc3c2n1CCNS(C)(=O)=O [Analog 70]
Minimum Effective Concentration TNF ([1]; Table 11): 10 µM | Maximal Response TNF [1, 3]: 11432 pg/mL | Maximal Response IFN (interferon (α) (IFN-α); Table 11): 2003 pg/mL | Minimum Effective Concentration IFN (interferon (α) (IFN-α); Table 11): 30 µM

CCOCc1nc2c(N)nc3cc(-c4cccnc4)ccc3c2n1CCCCNC(=O)C(C)C [Analog 37]
minimal effective concentration ([1]; Table 10): 1.11 µM | Maximal Response (pg/mL) TNF [1, 2]: 728 pg/mL | minimal effective concentration (interferon (α) (IFN-α); Table 10): 0.12 µM | Maximal Response (pg/mL) IFN (interferon (α) (IFN-α); [2]): 1194 pg/mL

Cc1nc2c(N)nc3ccccc3c2n1CC(C)(C)NS(C)(=O)=O [Analog 1, N-[2-(4-Amino-2-methyl-1H-imidazo[4,5-c]quinolin-1-yl)-1,1-dimethylethyl]methanesulfonamide]
Maximal Response (pg/mL) TNF [1, 4]: 1518 pg/mL | Maximal Response (pg/mL) IFN (interferon (α) (IFN-α); [4]): 1846 pg/mL

COCCc1nc2c(N)nc3cccnc3c2n1CC(C)(C)O [Analog 7, 1-[4-amino-2-(2-methoxyethyl)-1H-imidazo[4,5-c][1,5]naphthyridin-1-yl]-2-methylpropan-2-ol]
Maximal Response (pg/mL) TNF [1, 5]: 7762 pg/mL | Maximal Response TNF ([1]; Table 12, * = below the experimental background of 40 pg/mL): 7503 pg/mL | Maximal Response (pg/mL) IFN (interferon (α) (IFN-α); [5]): 4143 pg/mL | Maximal Response IFN (interferon (α) (IFN-α); Table 12): 3142 pg/mL

CCc1nc2c(N)nc3ccccc3c2n1CC(C)(C)CN [Analog 99]
Minimum Effective Concentration TNF ([1]; Table 11): 0.37 µM | Maximal Response TNF [1, 3]: 13846 pg/mL | Maximal Response IFN (interferon (α) (IFN-α); Table 11): 405 pg/mL | Minimum Effective Concentration IFN (interferon (α) (IFN-α); Table 11): 0.04 µM

CCCc1nc2c(N)nc3ccccc3c2n1CCCCCS(C)(=O)=O [Analog 75]
Minimum Effective Concentration TNF ([1]; Table 11): 1.11 µM | Maximal Response TNF [1, 3]: 848 pg/mL | Maximal Response IFN (interferon (α) (IFN-α); Table 11): 828 pg/mL | Minimum Effective Concentration IFN (interferon (α) (IFN-α); Table 11): 0.12 µM

CC(C)(Cn1c(CCO)nc2c(N)nc3ccccc3c21)NS(C)(=O)=O [Example 6, N-{2-[4-Amino-2-(2-hydroxyethyl)-1H-imidazo[4,5-c]quinolin-1-yl]-1,1-dimethylethyl}methanesulfonamide]
Maximal Response TNF [1, 3]: * | Maximal Response (pg/mL) IFN (interferon (α) (IFN-α); [4]): 7521 pg/mL | Maximal Response IFN (interferon (α) (IFN-α); Table 11): 6527 pg/mL
